Active and inactive are the calls of the source.
Experiments:
[1] = Trypanosoma cruzi growth suppression in host cells – NIH3T3 host cells, beta-gal luminescence, confirmation (AID 2044); format: functional, cell-based;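 also: intracellular parasites grown in NIH/3T3 mouse fibroblasts as host cells; luminescent beta-galactosidase reporter signal from transgenic T. cruzi replicating inside host cells; inhibitors lower the luminescence signal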
cells [2] = format: functional, cell-based
[3] = target: T1, Probable nicotinate-nucleotide adenylyltransferase (Staphylococcus aureus (strain N315), UniProt P65502); format: functional, Staphylococcus aureus subsp. aureus N315; settings: read-out: IC50_Mean;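 as to IC50 Mean: confirmatory dose-response retesting of NadD inhibitor hits first found in an ultra-high-throughput screen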
T1 sequence (P65502 whole entry): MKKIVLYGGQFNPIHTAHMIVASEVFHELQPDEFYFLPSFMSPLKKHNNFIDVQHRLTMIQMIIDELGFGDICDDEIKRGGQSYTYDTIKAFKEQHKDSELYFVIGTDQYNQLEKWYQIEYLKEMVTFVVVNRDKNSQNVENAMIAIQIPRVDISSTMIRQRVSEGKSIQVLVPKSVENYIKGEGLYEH

Streptokinase A = target: T2, Streptokinase A (Streptococcus pyogenes serotype M1, UniProt P10520); assay: viability-normalized secreted streptokinase activity reduction – plasminogen activation absorbance, OD405, dose response (AID 1914); format: functional, Streptococcus pyogenes M1 GAS;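 also: secreted streptokinase activity via plasminogen activation per viability signal from cell pellet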
T2 sequence (P10520 whole entry): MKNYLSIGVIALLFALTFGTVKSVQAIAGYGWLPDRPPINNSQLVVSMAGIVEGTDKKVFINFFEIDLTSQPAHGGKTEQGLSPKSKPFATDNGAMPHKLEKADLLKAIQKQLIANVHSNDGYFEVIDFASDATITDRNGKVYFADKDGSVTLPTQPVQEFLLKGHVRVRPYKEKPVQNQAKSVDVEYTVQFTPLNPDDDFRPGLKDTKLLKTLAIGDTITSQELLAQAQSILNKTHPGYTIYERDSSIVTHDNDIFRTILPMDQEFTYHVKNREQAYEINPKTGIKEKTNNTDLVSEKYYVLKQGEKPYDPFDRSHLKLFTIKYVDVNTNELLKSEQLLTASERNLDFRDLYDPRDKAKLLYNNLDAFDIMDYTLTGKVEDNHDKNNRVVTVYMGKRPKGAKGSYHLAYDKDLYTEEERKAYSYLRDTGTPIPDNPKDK

cells [4] = format: functional, cell-based; remark: listed apart in the source
[5] = NIH3T3 cell viability loss – ATP luminescence, mouse fibroblasts, counter-screen, dose response (AID 2010); format: functional, cell-based;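 also: cells exposed to compound for about 90 hours before reading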
[6] = target: T1, Probable nicotinate-nucleotide adenylyltransferase; format: functional, Staphylococcus aureus subsp. aureus N315
INS1 = assay: INS-1E survival protection against cytokine death – cell-based, luminescence, retest, dose response (AID 449756); format: functional; settings: Rattus norvegicus;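 also: cell death triggered by IL-1 beta plus TNF-alpha plus IFN-gamma mixture; protective hits raise ATP signal compared with cytokine alone wells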
Nonstructural protein 1 = Nonstructural protein 1 (Influenza A virus, UniProt Q194T2); format: functional, Influenza A virus (A/California/07/2009(H1N1))
Sequence of Nonstructural protein 1 (Q194T2 whole entry): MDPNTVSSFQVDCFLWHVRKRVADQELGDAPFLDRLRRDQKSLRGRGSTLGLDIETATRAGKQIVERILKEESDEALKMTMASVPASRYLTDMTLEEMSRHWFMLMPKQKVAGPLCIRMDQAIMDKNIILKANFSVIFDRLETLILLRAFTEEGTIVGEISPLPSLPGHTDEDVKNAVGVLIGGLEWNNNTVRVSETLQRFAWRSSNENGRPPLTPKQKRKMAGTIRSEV

[7] = tested on: Streptococcus sp. 'group A'; assay: Streptococcus pyogenes SK(-)GAS viability under kanamycin – luminescence, BacTiterGlo, confirmation, counter-screen for streptokinase expression inhibitor project, dose response (AID 1900); format: functional, organism-based
Streptococcus = assay: GAS UMAA2166 growth inhibition – luminescence, BacTiterGlo, counter-screen for streptokinase expression inhibitor project, dose response (AID 1915); format: functional, organism-based;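 also: potency for reduction of bacterial viability or growth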
[8] = A Cell Based Secondary Assay To Explore Cytotoxicity of Compounds that Sensitize Mycobacterium Tuberculosis to Beta-Lactam Antibiotics.; format: functional
Estrogen receptor beta [9] = target: T3, Estrogen receptor beta (Homo sapiens, UniProt Q92731); assay: blockers of SRC-3 recruitment to ERβ – biochemical, ELISA, streptavidin-HRP readout, orthogonal assay, confirmation (AID 1060)
T3 sequence (Q92731 whole entry): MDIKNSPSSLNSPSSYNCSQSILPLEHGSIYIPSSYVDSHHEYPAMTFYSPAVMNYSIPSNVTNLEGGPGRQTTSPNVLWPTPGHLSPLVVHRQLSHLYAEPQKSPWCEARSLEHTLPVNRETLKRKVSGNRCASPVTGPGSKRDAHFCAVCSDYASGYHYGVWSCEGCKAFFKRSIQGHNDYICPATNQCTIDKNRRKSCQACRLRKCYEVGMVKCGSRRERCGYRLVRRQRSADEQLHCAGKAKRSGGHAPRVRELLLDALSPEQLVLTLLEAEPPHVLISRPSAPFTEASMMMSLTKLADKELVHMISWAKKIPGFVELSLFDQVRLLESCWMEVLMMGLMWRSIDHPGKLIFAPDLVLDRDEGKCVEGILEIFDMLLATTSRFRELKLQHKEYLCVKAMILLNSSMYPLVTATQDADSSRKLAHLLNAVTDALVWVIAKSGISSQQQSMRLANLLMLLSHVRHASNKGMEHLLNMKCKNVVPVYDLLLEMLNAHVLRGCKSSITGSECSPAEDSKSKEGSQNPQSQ

Estrogen receptor beta [10] = target: T3, Estrogen receptor beta
[11] = target: T4, Carboxy-terminal domain RNA polymerase II polypeptide A small phosphatase 1 (Homo sapiens, UniProt Q9GZU7); assay: CTDSP1 inhibitors, concentration-response, biochemical, absorbance readout, ultra-high-throughput screen actives (AID 540297); format: functional
T4 sequence (Q9GZU7 whole entry): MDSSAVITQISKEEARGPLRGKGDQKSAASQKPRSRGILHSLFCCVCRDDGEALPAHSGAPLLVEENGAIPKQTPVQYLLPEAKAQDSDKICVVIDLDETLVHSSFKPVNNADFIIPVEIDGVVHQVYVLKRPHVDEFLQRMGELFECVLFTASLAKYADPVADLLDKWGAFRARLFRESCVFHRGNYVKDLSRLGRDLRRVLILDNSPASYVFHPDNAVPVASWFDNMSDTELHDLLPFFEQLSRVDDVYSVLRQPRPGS

Estrogen receptor = target: T5, Estrogen receptor (Homo sapiens, UniProt P03372);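 also: potency for inhibiting coactivator peptide recruitment to the receptor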
T5 sequence (P03372 whole entry): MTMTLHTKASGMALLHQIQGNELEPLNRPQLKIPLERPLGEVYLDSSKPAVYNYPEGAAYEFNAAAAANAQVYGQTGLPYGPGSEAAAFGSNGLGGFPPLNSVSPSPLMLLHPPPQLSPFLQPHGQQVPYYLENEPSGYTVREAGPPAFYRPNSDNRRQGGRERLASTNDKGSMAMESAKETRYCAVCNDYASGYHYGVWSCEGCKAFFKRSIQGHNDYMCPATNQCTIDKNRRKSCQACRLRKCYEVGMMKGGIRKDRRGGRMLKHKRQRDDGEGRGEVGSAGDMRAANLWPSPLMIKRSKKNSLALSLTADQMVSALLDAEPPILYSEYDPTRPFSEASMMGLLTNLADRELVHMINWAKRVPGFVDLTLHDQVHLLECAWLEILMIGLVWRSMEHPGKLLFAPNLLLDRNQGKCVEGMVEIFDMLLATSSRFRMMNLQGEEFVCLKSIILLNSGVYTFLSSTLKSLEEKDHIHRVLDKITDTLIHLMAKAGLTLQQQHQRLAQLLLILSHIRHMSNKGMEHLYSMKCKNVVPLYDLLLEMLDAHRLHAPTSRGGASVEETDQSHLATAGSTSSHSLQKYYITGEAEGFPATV

[12] = target: T6, Microphthalmia-associated transcription factor (Homo sapiens, UniProt O75030); assay: reducers of TRPM1 reporter luminescence, concentration series – cell-based, SK-MEL-5, cherry-picked, set 3, MITF inhibitor project, dose response (AID 493073); format: functional;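 also: SK-MEL-5 melanoma cells with luciferase driven by the MITF target TRPM1 promoter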
T6 sequence (O75030 whole entry): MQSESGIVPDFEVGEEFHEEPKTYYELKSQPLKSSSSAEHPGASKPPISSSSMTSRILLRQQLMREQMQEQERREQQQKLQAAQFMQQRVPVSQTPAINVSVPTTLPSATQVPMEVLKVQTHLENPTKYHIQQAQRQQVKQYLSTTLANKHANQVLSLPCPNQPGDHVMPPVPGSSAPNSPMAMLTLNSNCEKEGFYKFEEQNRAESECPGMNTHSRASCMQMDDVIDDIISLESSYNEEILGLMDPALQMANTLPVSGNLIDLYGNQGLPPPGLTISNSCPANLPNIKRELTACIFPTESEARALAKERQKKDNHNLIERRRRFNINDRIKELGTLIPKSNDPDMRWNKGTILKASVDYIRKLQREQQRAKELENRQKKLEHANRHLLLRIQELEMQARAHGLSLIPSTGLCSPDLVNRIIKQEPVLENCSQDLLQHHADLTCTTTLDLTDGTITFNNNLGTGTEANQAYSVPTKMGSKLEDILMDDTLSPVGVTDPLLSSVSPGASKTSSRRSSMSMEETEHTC

cells [13] = assay: cells
[14] = viability loss in HepG2 hepatoma cells – cell-based, ATP luminescence, cherry-pick, activator set 2, cytotoxicity control, dose response (AID 1053143); format: functional
Fatty acid synthase [15] = target: T7, Fatty acid synthase (Homo sapiens, UniProt P49327); assay: inhibition of human FAS-TE enzyme activity – biochemical, endpoint fluorescence intensity, uHTS hits, dose response (AID 624327); format: functional;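 also: fluorescence from hydrolysis of an O-methyl fluorescein acyl ester substrate by the enzyme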
T7 sequence (P49327 whole entry): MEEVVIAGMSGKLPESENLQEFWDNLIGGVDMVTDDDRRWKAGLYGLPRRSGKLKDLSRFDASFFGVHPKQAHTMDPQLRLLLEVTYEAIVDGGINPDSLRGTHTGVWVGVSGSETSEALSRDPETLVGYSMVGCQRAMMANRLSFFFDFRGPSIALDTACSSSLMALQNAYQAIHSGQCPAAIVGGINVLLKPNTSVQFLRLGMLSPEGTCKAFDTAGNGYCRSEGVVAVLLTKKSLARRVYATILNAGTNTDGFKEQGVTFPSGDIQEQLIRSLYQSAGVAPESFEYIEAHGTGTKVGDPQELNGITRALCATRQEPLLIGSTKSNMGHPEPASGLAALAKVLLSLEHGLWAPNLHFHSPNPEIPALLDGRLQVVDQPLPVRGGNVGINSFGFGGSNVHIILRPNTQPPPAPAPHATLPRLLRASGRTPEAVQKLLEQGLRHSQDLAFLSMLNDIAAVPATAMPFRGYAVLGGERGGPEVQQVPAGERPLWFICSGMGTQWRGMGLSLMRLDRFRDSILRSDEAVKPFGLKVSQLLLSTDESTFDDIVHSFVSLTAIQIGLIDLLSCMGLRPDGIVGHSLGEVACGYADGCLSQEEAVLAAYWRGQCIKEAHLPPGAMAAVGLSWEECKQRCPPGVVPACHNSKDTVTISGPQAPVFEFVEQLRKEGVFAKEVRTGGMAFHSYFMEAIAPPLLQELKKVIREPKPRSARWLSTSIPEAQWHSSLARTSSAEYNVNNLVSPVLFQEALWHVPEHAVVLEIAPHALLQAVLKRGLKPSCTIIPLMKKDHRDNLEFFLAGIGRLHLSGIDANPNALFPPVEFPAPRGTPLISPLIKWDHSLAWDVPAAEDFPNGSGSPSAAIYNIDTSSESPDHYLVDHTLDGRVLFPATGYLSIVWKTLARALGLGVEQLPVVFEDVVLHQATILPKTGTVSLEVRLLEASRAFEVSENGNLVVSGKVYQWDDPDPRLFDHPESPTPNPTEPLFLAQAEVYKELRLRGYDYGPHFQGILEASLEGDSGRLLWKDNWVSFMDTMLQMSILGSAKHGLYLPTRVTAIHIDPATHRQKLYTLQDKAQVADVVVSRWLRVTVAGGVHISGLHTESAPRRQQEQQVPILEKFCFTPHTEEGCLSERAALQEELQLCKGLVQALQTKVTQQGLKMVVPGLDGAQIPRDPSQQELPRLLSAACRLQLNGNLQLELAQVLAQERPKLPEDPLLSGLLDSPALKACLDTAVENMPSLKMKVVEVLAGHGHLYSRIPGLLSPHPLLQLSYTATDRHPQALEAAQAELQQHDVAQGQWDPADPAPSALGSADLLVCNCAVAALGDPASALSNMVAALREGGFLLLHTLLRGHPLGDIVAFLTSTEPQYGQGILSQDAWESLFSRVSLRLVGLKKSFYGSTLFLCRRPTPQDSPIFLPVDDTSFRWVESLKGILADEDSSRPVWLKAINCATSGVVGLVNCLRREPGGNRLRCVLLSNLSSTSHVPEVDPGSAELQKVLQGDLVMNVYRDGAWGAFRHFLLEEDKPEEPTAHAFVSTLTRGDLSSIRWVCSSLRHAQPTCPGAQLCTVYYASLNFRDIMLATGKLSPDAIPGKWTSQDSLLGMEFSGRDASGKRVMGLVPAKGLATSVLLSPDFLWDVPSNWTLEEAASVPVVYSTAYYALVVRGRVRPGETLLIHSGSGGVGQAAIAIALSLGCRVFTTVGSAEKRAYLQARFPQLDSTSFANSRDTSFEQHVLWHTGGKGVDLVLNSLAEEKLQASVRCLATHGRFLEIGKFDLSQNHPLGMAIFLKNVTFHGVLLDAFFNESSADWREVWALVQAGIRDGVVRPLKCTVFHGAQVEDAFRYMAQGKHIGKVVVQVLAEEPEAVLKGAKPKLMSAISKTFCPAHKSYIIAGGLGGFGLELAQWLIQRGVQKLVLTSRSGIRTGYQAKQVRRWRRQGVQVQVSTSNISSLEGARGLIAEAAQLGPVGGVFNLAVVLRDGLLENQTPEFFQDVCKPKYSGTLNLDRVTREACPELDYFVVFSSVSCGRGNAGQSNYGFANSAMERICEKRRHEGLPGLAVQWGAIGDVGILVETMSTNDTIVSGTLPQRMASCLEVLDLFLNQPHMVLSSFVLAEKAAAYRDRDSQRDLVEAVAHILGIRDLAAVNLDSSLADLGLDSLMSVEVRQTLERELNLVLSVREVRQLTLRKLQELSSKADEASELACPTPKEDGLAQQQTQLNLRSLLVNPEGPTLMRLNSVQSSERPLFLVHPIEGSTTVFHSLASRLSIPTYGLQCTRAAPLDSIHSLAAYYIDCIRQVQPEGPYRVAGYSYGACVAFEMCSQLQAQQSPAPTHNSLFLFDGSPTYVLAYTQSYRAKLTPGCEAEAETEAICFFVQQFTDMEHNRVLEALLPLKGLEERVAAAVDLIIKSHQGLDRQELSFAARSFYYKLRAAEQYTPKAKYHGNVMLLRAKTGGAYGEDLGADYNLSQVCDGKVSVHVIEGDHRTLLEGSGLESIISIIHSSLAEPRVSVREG

Fatty acid synthase [16] = target: T7, Fatty acid synthase; assay: inhibition of human FAS-TE enzyme activity – biochemical, kinetic fluorescence intensity, dose response (AID 624326); format: functional;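 also: rate of fluorescence rise from hydrolysis of a fluorogenic O-methyl fluorescein ester substrate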
[17] = viability of uninfected HEp-2 cells – cell-based, HTS, cytotoxicity control for RSV inhibitor project, dose response (AID 2410); format: functional; settings: human respiratory syncytial virus
[18] = target: 26S proteasome non-ATPase regulatory subunit 14 (Homo sapiens, UniProt O00487); assay: inhibition of proteasome subunit RPN11 – biochemical, fluorescence polarization, uHTS hits, confirmation (AID 602368); format: functional
Sequence of 26S proteasome non-ATPase regulatory subunit 14 (O00487 whole entry): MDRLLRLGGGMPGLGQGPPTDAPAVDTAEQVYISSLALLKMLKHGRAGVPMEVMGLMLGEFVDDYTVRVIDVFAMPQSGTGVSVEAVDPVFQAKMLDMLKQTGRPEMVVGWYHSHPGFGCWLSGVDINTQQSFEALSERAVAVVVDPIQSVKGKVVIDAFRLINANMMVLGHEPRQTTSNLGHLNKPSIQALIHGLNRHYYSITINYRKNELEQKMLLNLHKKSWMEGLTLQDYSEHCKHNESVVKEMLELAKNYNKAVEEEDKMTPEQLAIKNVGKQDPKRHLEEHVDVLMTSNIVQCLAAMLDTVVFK

[19] = target: 72 kDa type IV collagenase (Homo sapiens, UniProt P08253); assay: Dose Response validation of uHTS RPN11 inhibitor hits using a MMP-2 Fluorescence assay.; format: functional
Sequence of 72 kDa type IV collagenase (P08253 whole entry): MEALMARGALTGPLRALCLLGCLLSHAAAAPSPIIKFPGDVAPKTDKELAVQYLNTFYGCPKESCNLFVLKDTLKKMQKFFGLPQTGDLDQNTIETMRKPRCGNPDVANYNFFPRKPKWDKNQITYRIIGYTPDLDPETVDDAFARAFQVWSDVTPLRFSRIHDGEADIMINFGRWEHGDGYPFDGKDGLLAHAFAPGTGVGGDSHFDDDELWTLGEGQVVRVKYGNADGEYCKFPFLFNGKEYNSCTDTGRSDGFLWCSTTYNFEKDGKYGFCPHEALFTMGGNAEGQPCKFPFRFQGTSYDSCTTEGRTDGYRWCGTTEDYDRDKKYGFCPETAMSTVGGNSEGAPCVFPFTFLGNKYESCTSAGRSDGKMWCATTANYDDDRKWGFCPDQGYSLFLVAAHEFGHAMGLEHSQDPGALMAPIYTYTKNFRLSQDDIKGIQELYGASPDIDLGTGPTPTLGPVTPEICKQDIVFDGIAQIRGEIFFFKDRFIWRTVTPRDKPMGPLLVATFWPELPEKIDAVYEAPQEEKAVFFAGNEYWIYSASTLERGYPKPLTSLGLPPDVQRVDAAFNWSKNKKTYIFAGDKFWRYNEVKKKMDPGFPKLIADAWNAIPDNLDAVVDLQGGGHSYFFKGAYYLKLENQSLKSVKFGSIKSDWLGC

Prothrombin = Prothrombin (Bos taurus, UniProt P00735); assay: thrombin protease inhibitors – biochemical, fluorescence polarization, uHTS hits, dose response (AID 602369); format: functional
Caspase-6 = target: T8, Caspase-6 (Homo sapiens, UniProt P55212); assay: inhibition of CASP6 peptide cleavage – biochemical, VEID-R110 fluorescence, cherry-pick, dose response (AID 720632)
T8 sequence (P55212 whole entry): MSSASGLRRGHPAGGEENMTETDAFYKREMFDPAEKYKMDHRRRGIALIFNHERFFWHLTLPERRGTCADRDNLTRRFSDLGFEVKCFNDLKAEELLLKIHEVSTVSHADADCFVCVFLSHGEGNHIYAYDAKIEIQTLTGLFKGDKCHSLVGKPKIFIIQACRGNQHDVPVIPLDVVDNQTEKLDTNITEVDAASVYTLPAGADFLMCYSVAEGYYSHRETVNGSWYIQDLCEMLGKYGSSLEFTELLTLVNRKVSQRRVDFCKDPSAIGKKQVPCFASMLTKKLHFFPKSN

Compound: Cc1cccc2sc(NNC(=O)c3ccc(S(=O)(=O)N4CCc5ccccc5C4)cc3)nc12
- EC50 [1]: 0.733 µM (active)
- EC50 (cells [2]): > 350 µM (not active)
- IC50 [3]: 56.7 µM (active)
- EC50 (Streptokinase A): > 150 µM (not active)
- EC50 (cells [4]): 12 µM (active)
- EC50 [5]: 2.62 µM (active)
- IC50 [6]: 13.8 µM (active)
- AC50 (INS1): 1.8 µM (active)
- IC50 (Nonstructural protein 1): > 100 µM (active)
- EC50 [7]: 2.4 µM (active)
- EC50 (Streptococcus): 33.6 µM (active)

Compound: CNC(=Nc1cc(Cl)ccc1Cl)SC1CC(=O)N(c2ccc(C(=O)OC)cc2)C1=O (stereo not given)
- EC50 [7]: 10.3 µM (active)
- CC50 [8]: > 40 µM (active)
- EC50 (Streptococcus): 12.5 µM (active)

Compound: O=C(c1cc2ncc(Br)cn2n1)N1CCN(C(=O)c2ccco2)CC1
- IC50 (Estrogen receptor beta [9]): 0.349 µM (not active)
- IC50 (Estrogen receptor beta [10]): 2.73 µM (active)
- IC50 [11]: 16.5 µM (active)
- IC50 (Estrogen receptor): 17.9 µM (active)

Compound: Clc1ccc(-c2c[n+](Cc3cccc(Cl)c3)c3n2CCC3)cc1
- EC50 [1]: < 0.1 µM (active)
- EC50 [5]: > 60 µM (not active)
- AC50 [12]: 8.77 µM (active)
- EC50 (cells [13]): 0.009 µM (active)

Compound: N#Cc1ccc(C23CC4(C2)[C@H](CN(Cc2cccnc2)[C@@H]4c2ccccc2)C3c2ccccc2)cc1 (stereo not given in full)
- CC50 [8]: > 40 µM (active)

Compound: Brc1c(CSc2nc3ccccc3o2)nc2ncccn12
- AC50 [14]: > 52 µM (inactive)

Compound: Cc1ccc2c(C)nc(N=C(N)NS(=O)(=O)c3ccc([N+](=O)[O-])cc3)nc2c1
- EC50 [1]: < 0.1 µM (active)
- IC50 (Fatty acid synthase [15]): 10.9 µM (active)
- IC50 (Fatty acid synthase [16]): 8.96 µM (active)
- EC50 [5]: > 60 µM (not active)
- CC50 [17]: 45.4 µM (active)
- EC50 (cells [13]): 0.273 µM (active)

Compound: Cc1cccc(NC(=O)CNC(=O)CCc2nc3sc4c(c3c(=O)[nH]2)CCCC4)c1C
- IC50 [18]: 7.12 µM (active)
- IC50 [19]: > 100 µM (inactive)
- IC50 [11]: 2.66 µM (active)
- IC50 (Prothrombin): 43.9 µM (active)
- AC50 (Caspase-6): 7.7 µM (active)
